Tests used:
Sarcoma-180 = assay: Inhibition of Sarcoma-180 cell growth in vitro; type: cell-based; settings: Mus musculus, 48 h; Murine Sarcoma-180; read-out: ED50 (the source's name)
Description: (§1) Two leukemia cell lines (L1210 and L5178Y) and two solid tumor cell lines (Sarcoma 180 and Walker 256) were used in these studies.
(§2) Logarithmically growing L1210 cells (approximately 3×10^5 cells/ml) were diluted with Fischer's medium (containing 10% horse serum) to an approximate concentration of 5×10^4 cells/ml. Cells were planted in duplicate into 15 ml culture tubes containing either no drug or various amounts of drug, and incubated for 48 hours at 37° C. before being counted.
(§3) Trimetrexate was also evaluated in a similar manner side-by-side with methotrexate for its effect on the growth of three additional murine cell lines (L5178Y, Sarcoma-180, and Walkler-256) and three human cell lines (acute myelogenous leukemia K-562, T-cell 8402, and B-cell 8392), propagated in vitro.

[1] = system: human cell lines (K-562, T-cell 8402, B-cell 8392); assay: Comparison with methotrexate against human cell lines in vitro; type: cell-based
Description: as §2, §3

[2] = system: head and neck (squamous) cancers; assay: Phase I clinical trials, head and neck (squamous) cancers; type: in vivo, human; settings: single agent
Description: (§4) Several Phase I clinical trials employing trimetrexate in human patients were carried out. In one study, 36 patients were treated with trimetrexate as a single agent at daily doses of 0.5 mg/m^2 /day to 12 mg/m^2 /day administered intravenously for five days.
(§5) In additional Phase I clinical studies, patients were administered trimetrexate with single intravenous doses ranging between 5 and 450 mg/m^2 and with weekly doses of slightly greater than 100 mg/m^2.

colon carcinoma = assay: Phase I clinical trials, colon carcinoma; type: in vivo, human; settings: single agent
Description: as §4, §5

Colon tumor = assay: Human tumor cloning system, colon tumors; type: cell-based; settings: one hour, 9 specimens
Text: (§6) The activity of trimetrexate was compared with that of methotrexate in tests with a human tumor cloning system (Latham, et al., Proc. Am. Assoc. Cancer Res., 24: 278 (1983)). The data from these tests appear in Table III were the activities are expressed as the numbers of tumors with 50% or greater reduction in tumor colony forming units after one hour exposure to the drug.

dihydrofolate reductase = assay: Inhibition of dihydrofolate reductase; type: biochemical
B-Cell 8392 = assay: Inhibition of B-Cell 8392 growth in vitro; type: cell-based, human; settings: 48 h; Human B-Cell 8392; read-out: ED50 (the source's name)
Description: as §2, §3

L1210 cells = assay: Inhibition of L1210 cell growth in vitro; type: cell-based, murine
Description: as §1, §2
*ED50 = the concentration of drug required to reduce the cell count
to 50%, determined by plotting the cell count versus drug concentration.

Lung tumor = assay: Human tumor cloning system, lung tumors; type: cell-based; settings: one hour, 8 specimens
Text: as §6

P388 = assay: Antitumor activity against P388 leukemia in mice; type: in vivo, mouse; settings: for Life Span % ILS / Life Span % T/C: optimal dose 40 mg/kg (dose range 80-2.5), ip daily, Days 1-9
Description: (§7) The growth inhibition properties of 5-methyl-6-[[(3,4,5-trimethoxyphenyl)amino]methyl]-2,4-quinazolinediamine (trimetrexate) against several transplanted murine tumors were evaluated employing the antitumor screening program of the Drug Evaluation Branch of the National Cancer Institute. The protocols for these tests is described in Cancer Chemotherapy Reports, 3: 1-103 (1972). The dosing schedules are results from these tests appear in Table IV.
In the L1210, P388, and B-16 melanoma models, results are expressed as a percentage of median control survival time. Percentage of increase in survival time and/or cures (30 day survivors) were the parameters used to measure the effectiveness of the agents. An initial median survival value for treated over control percentage (% T/C) equal to or greater than 125% was considered indicative of activity. For confirmatory activity, two multidose assays must show % T/C values equal to or greater than 150%.
Percent increase in median life span (% ILS) values appearing in the tables were calculated from the formula; 100×(median life span in days of treated mice minus median life span in days of untreated mice) divided by median life span in days of untreated control mice. That is, % ILS=[100×(T-C)]/C. % T/C and %ILS are directly interconvertible by the formula % ILS=% T/C -100.
L1210 Leukemic Cells (10^5 /mouse) and P388 leukemic cells (10^6 /mouse)were in the ascites form and were transferred to BD2F1 or CD2F1 mice by intraperitoneal (ip) injection of 0.1 ml of cells taken from animals bearing 6- to 7-day old tumors. Leukemic cells were injected ip one day prior to the start of treatment.
(§8) In all of the mouse tumor studies described above, routine controls consisted of matching ten normal mice (with no tumors) to each tumor-bearing treatment group and injecting them with the same drug at the same dosages, schedules, days of administration, and drug route as the tumor-bearing mice. In this way, drug-induced toxicity (lethality and weight loss) could be clearly separated from the effects of the drug on the tumors.

CD8F1 Mammary tumor = assay: Antitumor activity against CD8F1 mammary tumor in mice; type: in vivo, mouse; settings: for Tumor Weight Inhibition % TWI: Sc every 7 days, Days 1,8,15,22,19
Description: as §7
Mouse Mammary Tumor Was propagated in CD8F1 female mice as spontaneous tumors. Approximately 10^6 cells were then implanted subcutaneously into CD8F1 mice. […] At the end of the experiment (30 days), individual tumor weights were determined by caliper measurements. Each tumor weight was calculated as described previously for colon 26 and 38 tumors. A criterion of % T/C tumor weight of 42% or less was considered indicative of activity, with a reproducible 10% T/C tumor weight or less indicative of substantive activity.
as §8

cells in culture = assay: Concentration reached in cells in culture; type: cell-based; settings: compared with methotrexate

## COc1cc(NCc2ccc3nc(N)nc(N)c3c2C)cc(OC)c1OC [Trimetrexate, 5-methyl-6-[[(3,4,5-trimethoxyphenyl)amino]methyl]-2,4-quinazolinediamine]
Sarcoma-180
  IC50: 18 nM
[1]
  effectiveness relative to methotrexate: more effective in inhibiting cell growth in vitro than was methotrexate
[2]
  patients with favorable responses: two
Colon carcinoma
  patients with favorable responses: four
Colon tumor; trimetrexate 0.1 μg/ml
  Number of Tumors with 50% or Greater Decrease in Tumor Colony Forming Units: 4
Colon tumor; trimetrexate 1.0 μg/ml
  Number of Tumors with 50% or Greater Decrease in Tumor Colony Forming Units: 4
Dihydrofolate reductase
  inhibition of dihydrofolate reductase: potent inhibitor
B-Cell 8392
  IC50: 5 nM
L1210 cells
  inhibition of L1210 cell growth: potent inhibitor of L1210 cell growth
L1210 cells; Mus musculus, L1210, concentration required to reduce the cell count to 50%, 48 hours at 37° C, read-out: ED50 for L1210 Cells
  IC50: 7 nM
Lung tumor; trimetrexate 0.1 μg/ml
  Number of Tumors with 50% or Greater Decrease in Tumor Colony Forming Units: 1
Lung tumor; trimetrexate 1.0 μg/ml
  Number of Tumors with 50% or Greater Decrease in Tumor Colony Forming Units: 1
P388; mouse, in vivo
  antitumor activity: good activity
P388; first line
  Life Span % ILS: 143%
  Life Span % T/C: 243%
P388; second line
  Life Span % ILS: 142%
  Life Span % T/C: 242%
CD8F1 Mammary tumor; optimal dose 120 mg/kg (dose range 120-3.75)
  Tumor Weight Inhibition % TWI: 100%
CD8F1 Mammary tumor; optimal dose 180 mg/kg (dose range 270-35)
  Tumor Weight Inhibition % TWI: 100%
CD8F1 Mammary tumor; subcutaneously implanted
  antitumor activity: good activity
Cells in culture
  concentration reached in cells in culture: higher concentration than methotrexate
